In paper PMC8308925 (Pharmaceuticals, 2021):

Assays:
UGT1A1 = target: T1, UGT1A1 (Homo sapiens, UniProt P22309); assay: biochemical
T1 sequence (P22309 26-533): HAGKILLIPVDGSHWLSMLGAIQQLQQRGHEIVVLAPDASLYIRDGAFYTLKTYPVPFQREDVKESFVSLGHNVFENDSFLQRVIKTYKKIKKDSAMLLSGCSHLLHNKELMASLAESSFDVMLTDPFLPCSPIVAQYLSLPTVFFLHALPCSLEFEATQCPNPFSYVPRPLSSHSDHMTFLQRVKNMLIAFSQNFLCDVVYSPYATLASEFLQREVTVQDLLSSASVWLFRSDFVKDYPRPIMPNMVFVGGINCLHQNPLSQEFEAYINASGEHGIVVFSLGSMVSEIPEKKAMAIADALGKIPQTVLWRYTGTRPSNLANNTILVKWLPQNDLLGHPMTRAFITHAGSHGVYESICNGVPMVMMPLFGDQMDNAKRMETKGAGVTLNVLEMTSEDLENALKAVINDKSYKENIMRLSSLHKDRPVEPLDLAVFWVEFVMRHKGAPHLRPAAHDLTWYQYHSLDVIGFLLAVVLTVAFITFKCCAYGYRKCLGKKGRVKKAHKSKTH

UGT2B7 = target: T2, UGT2B7 (Homo sapiens, UniProt P16662); assay: biochemical
T2 sequence (P16662 24-529): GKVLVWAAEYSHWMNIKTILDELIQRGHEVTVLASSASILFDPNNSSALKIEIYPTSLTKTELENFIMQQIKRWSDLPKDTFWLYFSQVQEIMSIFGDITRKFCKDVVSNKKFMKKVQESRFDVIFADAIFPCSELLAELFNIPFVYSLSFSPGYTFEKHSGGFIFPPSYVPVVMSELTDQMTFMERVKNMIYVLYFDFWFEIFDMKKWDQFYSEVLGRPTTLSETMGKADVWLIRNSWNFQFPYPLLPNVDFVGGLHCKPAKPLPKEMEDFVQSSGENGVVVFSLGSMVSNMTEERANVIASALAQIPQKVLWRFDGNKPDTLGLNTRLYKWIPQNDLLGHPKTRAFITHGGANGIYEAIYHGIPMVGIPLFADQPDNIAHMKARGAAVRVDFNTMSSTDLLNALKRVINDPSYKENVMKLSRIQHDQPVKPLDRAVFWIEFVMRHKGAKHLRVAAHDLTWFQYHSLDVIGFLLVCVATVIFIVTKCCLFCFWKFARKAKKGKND

UGT1A4 = target: T3, UGT1A4 (Homo sapiens, UniProt P22310); assay: biochemical
T3 sequence (P22310 29-534): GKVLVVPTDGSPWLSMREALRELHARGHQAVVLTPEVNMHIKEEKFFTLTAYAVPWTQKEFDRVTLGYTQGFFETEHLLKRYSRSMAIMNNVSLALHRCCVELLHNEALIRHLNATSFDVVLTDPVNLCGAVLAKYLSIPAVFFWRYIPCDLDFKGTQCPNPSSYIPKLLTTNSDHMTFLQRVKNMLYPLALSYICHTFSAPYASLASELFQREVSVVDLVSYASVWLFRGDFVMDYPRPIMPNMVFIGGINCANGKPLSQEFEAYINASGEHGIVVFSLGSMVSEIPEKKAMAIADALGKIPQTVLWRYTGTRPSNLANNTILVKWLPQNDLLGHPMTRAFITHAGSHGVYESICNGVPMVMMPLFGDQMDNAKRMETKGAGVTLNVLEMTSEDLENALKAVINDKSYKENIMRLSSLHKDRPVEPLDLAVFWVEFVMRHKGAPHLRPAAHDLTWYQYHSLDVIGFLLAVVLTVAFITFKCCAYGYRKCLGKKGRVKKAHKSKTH

UGT1A9 = target: T4, UGT1A9 (Homo sapiens, UniProt O60656); assay: biochemical
T4 sequence (O60656 26-530): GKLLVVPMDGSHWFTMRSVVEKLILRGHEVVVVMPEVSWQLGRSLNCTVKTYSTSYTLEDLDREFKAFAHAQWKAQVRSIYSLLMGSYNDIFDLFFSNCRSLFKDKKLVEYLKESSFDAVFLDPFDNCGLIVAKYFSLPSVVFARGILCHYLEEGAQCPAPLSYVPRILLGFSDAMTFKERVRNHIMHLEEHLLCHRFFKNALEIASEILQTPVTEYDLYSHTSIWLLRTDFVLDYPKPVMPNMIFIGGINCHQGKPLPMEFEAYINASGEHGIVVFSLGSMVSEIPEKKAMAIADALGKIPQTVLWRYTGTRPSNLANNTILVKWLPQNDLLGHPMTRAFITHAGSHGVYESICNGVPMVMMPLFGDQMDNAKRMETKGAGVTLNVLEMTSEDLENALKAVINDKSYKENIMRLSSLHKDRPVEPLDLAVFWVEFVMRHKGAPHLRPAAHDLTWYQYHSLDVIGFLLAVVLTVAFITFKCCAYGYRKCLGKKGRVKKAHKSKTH

MATE1 = target: T5, MATE1 (Homo sapiens, UniProt Q96FL8); conditions: 4 µM probe substrate, HEK 293-MATE1
T5 sequence (Q96FL8 1-570): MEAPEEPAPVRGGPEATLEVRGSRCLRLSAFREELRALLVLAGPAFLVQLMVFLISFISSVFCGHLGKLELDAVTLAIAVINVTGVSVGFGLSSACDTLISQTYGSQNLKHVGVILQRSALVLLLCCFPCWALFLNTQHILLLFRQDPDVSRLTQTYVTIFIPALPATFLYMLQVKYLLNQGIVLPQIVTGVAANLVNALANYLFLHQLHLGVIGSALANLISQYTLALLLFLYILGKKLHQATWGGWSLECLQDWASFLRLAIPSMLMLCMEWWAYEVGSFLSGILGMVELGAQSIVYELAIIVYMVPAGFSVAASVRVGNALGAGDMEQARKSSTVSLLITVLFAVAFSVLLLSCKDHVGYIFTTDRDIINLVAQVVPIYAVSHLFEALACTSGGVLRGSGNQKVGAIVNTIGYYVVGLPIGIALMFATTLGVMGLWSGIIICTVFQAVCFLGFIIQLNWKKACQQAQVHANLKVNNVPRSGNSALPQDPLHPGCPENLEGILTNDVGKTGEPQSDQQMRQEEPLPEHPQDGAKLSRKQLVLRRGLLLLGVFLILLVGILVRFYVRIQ
Description: (§1) OCT1-, OCT2-, MATE1-, and MATE2K-overexpressing HEK 293 cells and mock cells. To
(§2) aminohippuric acid for OAT1, 4 µM [14C]Metformin for OCT1, OCT2, MATE1, and
(§3) lein for OATP2B1, 100 µM probenecid for OAT1, 100 µM verapamil for OCT1, 200 µM
(§4) and MATE2K, respectively).
(§5) and –MATE2K and mock cells.

MATE2K = MATE2K (Homo sapiens, UniProt Q86VL8); conditions: 4 µM probe substrate, HEK 293-MATE2K
MATE2K, sequence (Q86VL8 1-566 isoform Q86VL8-3): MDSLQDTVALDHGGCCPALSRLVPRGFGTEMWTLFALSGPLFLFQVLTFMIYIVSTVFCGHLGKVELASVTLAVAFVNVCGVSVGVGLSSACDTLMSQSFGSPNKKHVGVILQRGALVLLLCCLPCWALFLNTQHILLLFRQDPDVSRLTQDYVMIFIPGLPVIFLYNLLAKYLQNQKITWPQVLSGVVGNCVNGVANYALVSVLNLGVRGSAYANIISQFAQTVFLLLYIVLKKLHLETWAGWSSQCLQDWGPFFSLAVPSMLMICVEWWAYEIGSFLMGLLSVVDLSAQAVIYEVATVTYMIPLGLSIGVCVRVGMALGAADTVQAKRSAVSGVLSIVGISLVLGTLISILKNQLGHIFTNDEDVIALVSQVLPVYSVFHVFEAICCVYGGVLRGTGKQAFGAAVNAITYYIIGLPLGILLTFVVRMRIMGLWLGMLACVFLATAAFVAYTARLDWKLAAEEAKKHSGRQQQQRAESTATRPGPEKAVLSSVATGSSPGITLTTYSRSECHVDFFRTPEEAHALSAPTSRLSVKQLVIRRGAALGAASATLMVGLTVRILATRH
Description: as §1, §2, §3, §4, §5

OCT1 = target: T6, OCT1 (Homo sapiens, UniProt O15245); conditions: 4 µM probe substrate, HEK 293-OCT1
T6 sequence (O15245 1-554): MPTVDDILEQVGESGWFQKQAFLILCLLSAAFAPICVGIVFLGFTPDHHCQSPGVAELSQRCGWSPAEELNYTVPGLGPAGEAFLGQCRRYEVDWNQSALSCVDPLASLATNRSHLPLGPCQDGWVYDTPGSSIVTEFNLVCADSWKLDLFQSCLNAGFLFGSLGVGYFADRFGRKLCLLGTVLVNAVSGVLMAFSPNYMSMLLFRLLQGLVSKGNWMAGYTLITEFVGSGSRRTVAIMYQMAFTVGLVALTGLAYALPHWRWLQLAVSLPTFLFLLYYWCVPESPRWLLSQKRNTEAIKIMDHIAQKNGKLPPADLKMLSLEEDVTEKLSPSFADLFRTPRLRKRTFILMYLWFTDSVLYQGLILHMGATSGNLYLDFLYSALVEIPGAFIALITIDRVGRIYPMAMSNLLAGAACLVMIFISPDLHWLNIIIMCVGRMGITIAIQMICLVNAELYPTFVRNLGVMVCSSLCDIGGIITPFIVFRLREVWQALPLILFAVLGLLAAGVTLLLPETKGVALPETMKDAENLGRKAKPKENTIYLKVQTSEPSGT
Description: as §1, §2, §3, §4, §5

OCT2 = target: T7, OCT2 (Homo sapiens, UniProt O15244); conditions: 4 µM probe substrate, HEK 293-OCT2
T7 sequence (O15244 1-555): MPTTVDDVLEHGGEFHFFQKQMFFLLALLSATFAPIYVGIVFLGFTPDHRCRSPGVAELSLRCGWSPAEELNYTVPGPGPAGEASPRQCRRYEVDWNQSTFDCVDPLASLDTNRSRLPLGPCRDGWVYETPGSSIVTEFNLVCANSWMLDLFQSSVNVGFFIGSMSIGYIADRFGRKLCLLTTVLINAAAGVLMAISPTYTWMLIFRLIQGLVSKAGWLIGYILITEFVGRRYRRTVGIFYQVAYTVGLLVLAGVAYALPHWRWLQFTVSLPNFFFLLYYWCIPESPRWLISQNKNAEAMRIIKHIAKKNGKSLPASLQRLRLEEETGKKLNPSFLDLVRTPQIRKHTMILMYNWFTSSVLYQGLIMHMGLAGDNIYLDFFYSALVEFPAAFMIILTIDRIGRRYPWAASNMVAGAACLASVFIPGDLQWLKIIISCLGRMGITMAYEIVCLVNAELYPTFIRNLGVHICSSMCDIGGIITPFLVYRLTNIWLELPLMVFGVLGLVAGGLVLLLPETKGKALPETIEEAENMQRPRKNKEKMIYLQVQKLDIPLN
Description: as §1, §2, §3, §4, §5

ASBT = target: T8, ASBT (Homo sapiens, UniProt Q12908); conditions: inhibition of ASBT, implemented in DDI model; ref [38]; cited from earlier work
T8 sequence (Q12908 1-348): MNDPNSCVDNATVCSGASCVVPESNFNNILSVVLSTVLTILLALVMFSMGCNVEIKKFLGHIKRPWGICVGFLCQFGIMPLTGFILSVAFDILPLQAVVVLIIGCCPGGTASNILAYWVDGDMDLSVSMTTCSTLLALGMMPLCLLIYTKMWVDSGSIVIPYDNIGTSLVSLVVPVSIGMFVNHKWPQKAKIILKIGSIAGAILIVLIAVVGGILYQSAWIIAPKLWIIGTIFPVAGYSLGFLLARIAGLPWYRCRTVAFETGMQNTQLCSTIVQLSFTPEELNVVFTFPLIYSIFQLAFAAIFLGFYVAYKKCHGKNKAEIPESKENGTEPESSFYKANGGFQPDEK

OAT3 = conditions: inhibition of OAT3, implemented in DDI model; ref [41]; cited from earlier work

**Q.** For `COC(=O)N[C@H](C(=O)N[C@@H](Cc1ccccc1)[C@@H](O)CN(Cc1ccc(-c2ccccn2)cc1)NC(=O)[C@@H](NC(=O)OC)C(C)(C)C)C(C)(C)C` [Atazanavir], which IC50 (UGT1A1) is on record?
**A.** The IC50 was 290 nM.

**Q.** With `O=C1Nc2ccc(Cl)cc2[C@@](C#CC2CC2)(C(F)(F)F)O1` [Efavirenz] as the molecule, how does the IC50 (UGT2B7) read?
**A.** Its IC50 is 27300 nM.

**Q.** With `C[C@@H]1CC[C@@]2(OC1)O[C@H]1C[C@H]3[C@@H]4CC[C@H]5C[C@@H](O)CC[C@]5(C)[C@H]4CC(=O)[C@]3(C)[C@H]1[C@@H]2C` [Hecogenin] as the molecule, how does the IC50 (UGT1A4) read?
**A.** The IC50 was 2100 nM.

**Q.** For `O=C(O)c1cccnc1Nc1cccc(C(F)(F)F)c1` [Niflumic acid], which IC50 (UGT1A9) is on record?
**A.** Its IC50 is 280 nM.

**Q.** With `CN(C)C(N)=NC(=N)N` [[14C]Metformin] as the molecule, how does the “Increase of probe substrate uptake rate in transporter-expressing cells compared to mock cells” value (shortened to “Increase of probe substrate uptake rate”) (MATE1) read?
**A.** Its value is 18.3 fold.

**Q.** What about the “Increase of probe substrate uptake rate” value (MATE2K) of the same molecule?
**A.** The value was 4.2 fold.

**Q.** And the “Increase of probe substrate uptake rate” value (OCT1)?
**A.** Its value is 4.8 fold.

**Q.** And the “Increase of probe substrate uptake rate” value (OCT2)?
**A.** The value was 8.0 fold.

**Q.** With `CCc1ccc(CCOc2ccc(CC3SC(=O)NC3=O)cc2)nc1` (stereo not shown) [pioglitazone] as the molecule, how does the Ki (ASBT) read?
**A.** Its Ki is 54600 nM.

**Q.** What about the Ki (OAT3) of the same molecule?
**A.** Its Ki is 1020 nM.
